The values below come from patent US9309239B2, “Substituted 6-fluoro-1H-pyrazolo[4,3-b]pyridines and use thereof” (BAYER INTELLECTUAL PROPERTY GMBH, priority 2010, dated 2016).

Molecules are shown by their SMILES.

In one series the test system is rabbit aorta rings. As to the kind of experiment: Vasorelaxant action in vitro (phenylephrine-contracted rabbit aorta rings). The settings on record: Oryctolagus cuniculus; concentration reducing phenylephrine-induced contraction of rabbit aorta rings by 50%. As for the experimental part: B-1. Vasorelaxant Action In Vitro
Rabbits are stunned by a blow to the neck and exsanguinated. The aorta is removed, freed from adhering tissue and divided into rings of a width of 1.5 mm. The rings are placed individually under an initial tension in 5 ml organ baths with Krebs-Henseleit solution which is at 37° C., is gassed with carbogen and has the following composition (in each case mM): sodium chloride 119; potassium chloride: 4.8; calcium chloride dihydrate: 1; magnesium sulfate heptahydrate: 1.4; potassium dihydrogenphosphate: 1.2; sodium bicarbonate: 25; glucose: 10. The contractile force is determined with Statham UC2 cells, amplified and digitalized using A/D transducers (DAS 1802 HC, Keithley Instruments Munich), and recorded in parallel on linear recorders. To obtain a contraction, phenylephrine is added to the bath cumulatively in increasing concentration. After several control cycles, the substance to be investigated is added in each further run in increasing dosage in each case, and the height of the contraction achieved is compared with the height of the contraction reached in the last preceding run. This is used to calculate the concentration needed to reduce the magnitude of the control value by 50% (IC50 value). The standard administration volume is 5 μl; the DMSO content in the bath solution corresponds to 0.1%.

For series [1], the system named is recombinant guanylate cyclase reporter cell line. As to the kind of experiment: Effect on a recombinant guanylate cyclase reporter cell line. The class given is cell-based. Conditions: MEC=minimum effective concentration. The protocol: B-2. Effect on a Recombinant Guanylate Cyclase Reporter Cell Line
The cellular activity of the compounds according to the invention is determined using a recombinant guanylate cyclase reporter cell line, as described in F. Wunder et al., Anal. Biochem. 339, 104-112 (2005).

A short description of series [2]: Pharmacokinetic parameters following intravenous administration in rats. In kind it is in vivo, male Wistar rats. Conditions: intravenous administration of 0.3 mg/kg. The protocol:
B-4. Determination of Pharmacokinetic Parameters Following Intravenous and Oral Administration:
The pharmacokinetic parameters of the substance are determined in male CD-1 mice, male Wistar rats and female beagles. The administration volume is 1 ml/kg for mice, 5 ml/kg for rats and 0.5 ml/kg for dogs. Intravenous administration is via a formulation of species-specific plasma/DMSO (99/1) in the case of mice and rats and via water/PEG400/ethanol (50/40/10) in the case of dogs. The taking of blood from rats is simplified by inserting a silicone catheter into the right Vena jugularis externa prior to substance administration. The surgical intervention takes place one day prior to the experiment with isofluran anesthesia and administration of an analgetic (carprofen 5 mg/kg s.c.). Substance administration is as i.v. bolus in the case of mice and via a 15-minute infusion in the case of rats and dogs. Removal of blood is after 0, 0.033, 0.083, 0.17, 0.5, 1, 2, 3, 4, 6, 7 and 24 hours in the case of mice and after 0, 0.083, 0.25, 0.28, 0.33, 0.42, 0.75, 1, 2, 3, 4, 6, 7 and 24 hours in the case of dogs and rats. […]
An internal standard (ZK 228859) is added to the unknown samples, calibration samples and QCs, and the protein is precipitated using excess acetonitrile. […] The substances are quantified by peak heights or areas using extracted ion chromatograms of specific MRM experiments.
The plasma concentration/time plots determined are used to calculate the pharmacokinetic parameters such as AUC, Cmax, t1/2 (half life) and CL (clearance) employing the validated pharmacokinetic calculation program KinEx (Vers. 2.5 and 3).
Since the substance quantification is performed in plasma, it is necessary to determine the blood/plasma distribution of the substance in order to be able to adjust the pharmacokinetic parameters correspondingly. […] After centrifugation at 1000 g, the plasma concentration is measured (see above) and determined by calculating the quotient of the cb/cp values.
Following intravenous administration of 0.3 mg/kg of example 1 in rats, the following values were recorded: […]

As a reminder, the IC50 is the point on the concentration scale where inhibition reaches its midpoint. A high value points to weaker potency in that assay. Broadly, the half-life is the time needed for the level to fall by half in the phase considered. Higher therefore signals slow loss.

`COC(=O)N(C)c1c(N)nc(-n2nc(Cc3ccccc3F)c3ncc(F)cc32)nc1N` [Example 7, Methyl {4,6-diamino-2-[6-fluoro-3-(2-fluorobenzyl)-1H-pyrazolo[4,3-b]pyridin-1-yl]pyrimidin-5-yl}methylcarbamate] yielded an IC50 in the series on rabbit aorta rings of 194 nM. The MEC in series [1] was 0.1 µM.
Turning to `CCOC(=O)Nc1c(N)nc(-n2nc(Cc3ccccc3F)c3ncc(F)cc32)nc1N` [Example 2, Ethyl {4,6-diamino-2-[6-fluoro-3-(2-fluorobenzyl)-1H-pyrazolo[4,3-b]pyridin-1-yl]pyrimidin-5-yl}carbamate], in the series with rabbit aorta rings, the IC50 is 763 nM. The MEC in series [1] turned out to be 0.3 µM.
For `COC(=O)N(CC(F)(F)F)c1c(N)nc(-n2nc(Cc3ccccc3F)c3ncc(F)cc32)nc1N` [Example 13, Methyl {4,6-diamino-2-[6-fluoro-3-(2-fluorobenzyl)-1H-pyrazolo[4,3-b]pyridin-1-yl]pyrimidin-5-yl}(2,2,2-trifluoroethyl)carbamate], in that order: 178 nM and 0.1 µM.
The molecule `CCOC(=O)N(C)c1c(N)nc(-n2nc(Cc3ccccc3F)c3ncc(F)cc32)nc1N` [Example 8, Ethyl {4,6-diamino-2-[6-fluoro-3-(2-fluorobenzyl)-1H-pyrazolo[4,3-b]pyridin-1-yl]pyrimidin-5-yl}methylcarbamate] displayed an IC50 with rabbit aorta rings of 286 nM. The MEC in series [1] was 0.1 µM.
As for `COC(=O)Nc1c(N)nc(-n2nc(Cc3ccccc3F)c3ncc(F)cc32)nc1N` [Example 1, Methyl {4,6-diamino-2-[6-fluoro-3-(2-fluorobenzyl)-1H-pyrazolo[4,3-b]pyridin-1-yl]pyrimidin-5-yl}carbamate], the IC50 in the series with rabbit aorta rings turned out to be 1380 nM. In series [2], this molecule came in with an AUCnorm of 4.62 kg·h/L. For the same molecule, the clearance in series [2] (male, Wistar, rat, blood, read-out: CL blood (converted)) is 5.5 mL/min/kg. The half-life in series [2] (male, Wistar, rat, plasma) was 1.38 h. Further, the MEC in series [1] was determined as 0.3 µM.
